# Data from patent US20230090255A1, “MAGL INHIBITOR, PREPARATION METHOD THEREFOR AND USE THEREOF” (LUNAN PHARMACEUTICAL GROUP CORPORATION, priority 2019, published 2023).
# Experiments:
# ulcerative colitis mice = assay: Mice ulcerative colitis (DSS); assay type: in vivo, BALB/c mice; settings: for Total times of hematochezia within the four periods / Colon length / IL-1 content: DSS mice; for Colon length: four periods; for IL-1 content: serum, ELISA
# Excerpt: Healthy male SPF-level BALB/c mice (8-week old and body mass: (20±2) g).
# Modeling: the mice were randomly divided into […] at the end of the quarantine, 10 pieces for each group. The mice in the normal group drank normal water freely, and the rest groups of mice drank 1.0%-1.5% DSS solution freely for modeling, 7 d later after modeling, the mice in the modeling group drank normal water freely for 7 d, and 14 d served as a modeling period for four continuous periods, and the mice in the modeling group were administered at the same time.
# End point of the experiment: experimental administration was performed for four periods, and dissection was performed on the 3rd and 4th day of the recovery period of the 4th period.
# Test indicators: the mice were weighed twice a week after the beginning of the administration; diarrhea and hematochezia of the mice were observed, and times of hematochezia were recorded.
# At the end of the experiment, the mice were dissected and weighed, and narcotized to take blood, then serum was preserved at -80° C. Spleen was taken and weighed to calculate the spleen index. The content of IL-1β in serum was detected via ELISA. Colorectum was cut and taken to measure the length of colorectum, then immobilized by formaldehyde and dyed by HE to detect the pathological change.
# [1] = system: mice with inflammatory pain; assay: Pain threshold of mice with inflammatory pain (complete Freund's adjuvant); assay type: in vivo, SD mice; settings: for Pain threshold: complete Freund's adjuvant paw model
# Procedure: […] (180±20) g were injected with a complete Freund’s adjuvant (50 µL/piece) at the right rear plantar of mice, and mice in the control group were injected with the corresponding volume of 0.5% sodium carboxymethylcellulose to establish a paw edema inflammatory pain model. After modeling, the mice were administered for 7 d continuously, and administered intragastrically once per day. Pain thresholds (s) of the mice were respectively determined on the 1st, 3rd and 7th day before administration and after modeling at different periods of time.
# Grouping and administration were the same as those of Example 40.
# [2] = system: mice writhing caused by acetic acid; assay: Mice writhing caused by acetic acid; settings: for Writhing times: 1 h before 0.7% acetic acid ip, within 20 min; for Latent time: time to first writhing; for Inhibition ratio: writhing inhibition
# Procedure: Each compound was prepared into a suspension by 0.5% sodium carboxymethylcellulose respectively, and then set according to the dose, and each administration group was administered intragastrically; the model group was administered intragastrically an equal volume of 0.5% sodium carboxymethylcellulose.
# Mice were intraperitoneally injected with acetic acid to cause a large area and more lasting painful stimuli in deep enterocoelia, causing mice to produce writhing responses. After being administered for 1 h, each dose group was intraperitoneally injected with 0.7% acetic acid-normal saline solution (0.1 ml/10 g).
# The time (pain latent time) that the mice started to appear writhing after being intraperitoneally injected with acetic acid was recorded.
# The writhing response times of each mouse within 20 min were recorded after injecting acetic acid to cause pain, and then, the writhing inhibition ratio of each administration group was calculated.
# Writhing inhibition ratio = [(writhing times of the control group -writhing times of the administration group)/writhing times of the control group] × 100%
# Experimental data is shown by x±s and subjected to variance analysis by SPSS 15.0 software.
# [3] = system: mice pain response induced by hot plate; assay: Mice pain response induced by hot plate; assay type: in vivo, ICR mice; settings: for Pain threshold: hot plate 55°C
# Procedure: Female ICR mice (20±2) g were placed on an intelligent hot plate at 55±0.5° C., and latency (s) that the plantar of mice touched the hot plate until the occurrence of a hind paws licking response served as a pain threshold indicator; the mice (response latency <5 s or >30 s) or jumping mice were eliminated.
# Grouping and administration were the same as those in Example 40.
# The mice were continuously administered intragastrically for 7 consecutive days; the pain threshold of each group of mice was respectively determined once at 30, 60, 90 and 120 min after the final administration; the pain threshold greater than 60 s was calculated by 60 s.
# [4] = system: reserpine-induced mice migraine; assay: Reserpine-induced mice migraine; assay type: in vivo, ICR mice; settings: for Blood coagulation time: reserpine 0.2 mg/kg sc mice, 1 h after final administration; for brain tissue 5-HT / Times of tail suspension (struggling times within 2 min): reserpine mice; for Times of tail suspension (struggling times within 2 min): 9th day
# Procedure: The mice in the blank control group and model group were administered intragastrically via a solvent from the 5th day after modeling, and the rest groups of mice were respectively administered corresponding medicaments and doses for intragastric administration for 10 consecutive days; 1 h later after the final administration, the mice were weighed; blood was taken at inner canthus to detect blood coagulation time; whole blood was taken, and cerebrum was taken on an ice and preserved at -20° C. for the subsequent experiment.
# Behavioral test: tail suspension activity was performed; the position 1 cm away from the tail of the mice was glued by an adhesive tape on the 9th day of the test, and the adhesive tape was penetrated by a steel needle, and hung in a dark box such that the mice were hung upside down; then the mice struggling times (total number of overturning from hanging) within 2 min were observed.
# The mice were weighed 1 h later after the final administration; blood of inner canthus was taken via a capillary to detect the blood coagulation time.
# Blood was taken to detect the content of 5-HT in serum via high-performance liquid chromatography. Cerebrum was taken on an ice and precooled and cleaned slightly with 0.5% sodium carboxymethylcellulose, and then sucked dry with a filter paper, and placed into a cryogenic tube, and preserved at -20° C. for further use, then the content of 5-HT in brain tissues was detected by high performance liquid chromatography.
# 5-HT test method: a sample was precipitated with 10% perchloric acid solution according to 1:1, and then centrifuged to take supernatant for test. Chromatographic conditions: the chromatographic column is a SHIMADZU VP-ODS C18 column (250*4.6 mm, 5 um), the mobile phase is a methanol-0.01 mol/L potassium acetate buffer solution (10:90, V/V, PH is adjusted to 4.00 with 0.2 mol/L citric acid) for gradient elution; the column temperature is 25° C., flow rate is 1.00 ml/min and test wavelength is 275 nm.
smiles,measurement,setting,value
O=C(Nc1cccc(Cl)c1)C1CCN(C(=O)c2cc(O)ccc2F)CC1 [MAGLZ-II-11 (a)],Total times of hematochezia within the four periods,ulcerative colitis mice; high dose 30 mg/kg ig,27.90±3.73
same,Colon length,ulcerative colitis mice; high dose 30 mg/kg ig,7.56±0.74 cm
same,IL-1 content,ulcerative colitis mice; high dose 30 mg/kg ig,38.61 ± 10.98 pg/mL
same,Total times of hematochezia within the four periods,ulcerative colitis mice; low dose 7.5 mg/kg ig,28.80±7.04
same,Colon length,ulcerative colitis mice; low dose 7.5 mg/kg ig,7.21±1.10 cm
same,IL-1 content,ulcerative colitis mice; low dose 7.5 mg/kg ig,42.01 ± 13.92 pg/mL
same,Total times of hematochezia within the four periods,ulcerative colitis mice; middle dose 15 mg/kg ig,29.10±7.14
same,Colon length,ulcerative colitis mice; middle dose 15 mg/kg ig,7.20±0.97 cm
same,IL-1 content,ulcerative colitis mice; middle dose 15 mg/kg ig,40.70 ± 8.50 pg/mL
same,"IL-1 content, in words",ulcerative colitis mice; compared with the model group,decrease
same,"colon length, in words",ulcerative colitis mice; compared with the model group,significantly increase
same,"total times of hematochezia, in words",ulcerative colitis mice; compared with the model group,reduce
same,"pain threshold of the mice with inflammatory pain, in words",[1]; compared with the model group,significantly extend
same,Pain threshold,"[1]; high dose 30 mg/kg ig once per day, 0 d",12.97 ± 2.32 s
same,Pain threshold,"[1]; high dose 30 mg/kg ig once per day, 1 d",7.83±1.01^∗∗∗ s
same,Pain threshold,"[1]; high dose 30 mg/kg ig once per day, 3 d",9.55±1.58^∗∗∗ s
same,Pain threshold,"[1]; high dose 30 mg/kg ig once per day, 7 d",11.00±161.00^∗∗∗ s
same,Pain threshold,"[1]; low dose 7.5 mg/kg ig once per day, 0 d",12.96 ± 2.44 s
same,Pain threshold,"[1]; low dose 7.5 mg/kg ig once per day, 1 d",7.38±1.19^∗∗∗ s
same,Pain threshold,"[1]; low dose 7.5 mg/kg ig once per day, 3 d",8.87±0.74^∗∗∗ s
same,Pain threshold,"[1]; low dose 7.5 mg/kg ig once per day, 7 d",9.91±1.05^∗∗∗ s
same,Pain threshold,"[1]; middle dose 15 mg/kg ig once per day, 0 d",13.03 ± 2.35 s
same,Pain threshold,"[1]; middle dose 15 mg/kg ig once per day, 1 d",7.58±0.84^∗∗∗ s
same,Pain threshold,"[1]; middle dose 15 mg/kg ig once per day, 3 d",9.30±0.75^∗∗∗ s
same,Pain threshold,"[1]; middle dose 15 mg/kg ig once per day, 7 d",10.66±1.30^∗∗∗ s
same,"latent time, in words",[2]; compared with the model group,extend
same,"mice writhing times caused by acetic acid, in words",[2]; compared with the model group,significantly decrease
same,Writhing times,[2]; high dose 30 mg/kg ig,12.5±9.4
same,Latent time,[2]; high dose 30 mg/kg ig,488.8 ± 172.0 s
same,Inhibition ratio,[2]; high dose 30 mg/kg ig,68.2%
same,Writhing times,[2]; low dose 7.5 mg/kg ig,22.6±12.0
same,Latent time,[2]; low dose 7.5 mg/kg ig,401.2 ± 168.3 s
same,Inhibition ratio,[2]; low dose 7.5 mg/kg ig,42.5%
same,Writhing times,[2]; middle dose 15 mg/kg ig,18.6±14.6
same,Latent time,[2]; middle dose 15 mg/kg ig,438.9 ± 230.0 s
same,Inhibition ratio,[2]; middle dose 15 mg/kg ig,52.7%
same,"pain thresholds of the thermal-stimulus mice, in words",[3]; compared with the model group,significantly extend
same,Pain threshold,"[3]; high dose 30 mg/kg ig 7 d, 30 min after final administration",39.45 ± 6.75 s
same,Pain threshold,"[3]; high dose 30 mg/kg ig 7 d, 60 min",46.56 ± 6.35 s
same,Pain threshold,"[3]; high dose 30 mg/kg ig 7 d, 90 min",45.42 ± 6.84 s
same,Pain threshold,"[3]; high dose 30 mg/kg ig 7 d, 120 min",43.73 ± 5.68 s
same,Pain threshold,"[3]; low dose 7.5 mg/kg ig 7 d, 30 min after final administration",36.18 ± 8.50 s
same,Pain threshold,"[3]; low dose 7.5 mg/kg ig 7 d, 60 min",43.17 ± 7.43 s
same,Pain threshold,"[3]; low dose 7.5 mg/kg ig 7 d, 90 min",42.83 ± 7.34 s
same,Pain threshold,"[3]; low dose 7.5 mg/kg ig 7 d, 120 min",42.16 ± 7.05 s
same,Pain threshold,"[3]; middle dose 15 mg/kg ig 7 d, 30 min after final administration",38.16 ± 7.00 s
same,Pain threshold,"[3]; middle dose 15 mg/kg ig 7 d, 60 min",45.47 ± 7.03 s
same,Pain threshold,"[3]; middle dose 15 mg/kg ig 7 d, 90 min",43.71 ± 5.87 s
same,Pain threshold,"[3]; middle dose 15 mg/kg ig 7 d, 120 min",42.34 ± 7.04 s
same,"blood coagulation time, in words",[4]; compared with the model group,significantly extend
same,"level of 5-HT in the brain tissue, in words",[4]; compared with the model group,significantly increase
same,"times of the tail suspension activity, in words",[4]; compared with the model group,significantly increase
same,Blood coagulation time,[4]; high dose 30 mg/kg ig 10 d,300.63±45.26 S
same,Blood coagulation time,[4]; low dose 7.5 mg/kg ig 10 d,136.75±33.22 S
same,Blood coagulation time,[4]; middle dose 15 mg/kg ig 10 d,256.88±42.93 S
same,brain tissue 5-HT,[4]; high dose 30 mg/kg ig 10 d,2.97 ± 0.28 nmol/g
same,Times of tail suspension (struggling times within 2 min),[4]; high dose 30 mg/kg ig,20.75±4.98
same,brain tissue 5-HT,[4]; low dose 7.5 mg/kg ig 10 d,1.35 ± 0.38 nmol/g
same,Times of tail suspension (struggling times within 2 min),[4]; low dose 7.5 mg/kg ig,16.13±3.68
same,brain tissue 5-HT,[4]; middle dose 15 mg/kg ig 10 d,1.86 ± 0.29 nmol/g
same,Times of tail suspension (struggling times within 2 min),[4]; middle dose 15 mg/kg ig,19.88 ± 4.09
